# What was measured:
# [1] = system: rat skin in the areas of subcutaneous administration; experiment: Histopathological study of the subcutaneous administration area; type: in vivo; details: for histological findings in rat skin: SC 15 mg/kg of DSF
# Experimental: FIGS. 3 to 10: histological cuts of rat skin in the areas of subcutaneous administration (SC), 15 mg/kg of DSF to the form of DSF physiological serum (PS) (A); Complex DSF-CD in SF (B), 25:75 Binary Mixture in SF (C) and control with SF (D). The histological were obtained at different times post-administration of each test. FIG. 3 is up to 8 hours post-administration; FIG. 4, to 24 hours post-administration; FIG. 5, at 48 hours post-administration; FIG. 6 to 72 hours post-administration; FIG. 7, 96 hours post-administration; FIG. 8, to 120 hours post-administration; FIG. 9, to 144 hours post administration and FIG. 10 corresponds to 168 hours post-administration.
# The histopathological evaluation was performed for subcutaneous (SC) and intramuscular (IM) injections of DSF free, in the form of CD-DSF Complex and in the form of binary mixture in ratios of 25:75 and 40:60. water, water with 15% glycerin, miglyol and ethyl oleate were used as excipients.
# 15 mg/kg of free DSF, DSF Complex-CD, Mixed Binary 25:75 and physiological saline (SF) were administered subcutaneously (SC).
# Comparative histological study between physiological saline and DSF in its various forms of administration are seen in FIG. 3 to No. 10.
# [2] = Pharmacokinetics in rats after SC administration (plasma total DDC); details: rat, in vivo, 15 mg/kg
# Experimental: FIG. 19: Effect of subcutaneous administration in rats, 15 mg/kg of DSF to the form of binary mixtures in water 25:75 (A); in miglyol (B) and (C) DSF free water on the concentrations Plasma total DDC in time.
# In addition to the histopathological studies in rats pharmacokinetic studies were conducted that measured the plasma concentrations of metabolites of DSF (DDC and MeDDC) after administration SC (FIG. 19) and/or IM (FIG. 20), 15 mg/kg weight of DSF to the form of binary mixtures.
# It was quantified the plasma concentration of total DDC that corresponds to the sum of the metabolites and MeDDC DDC, and it was used as a parameter for the analysis of the results shown below.
compound,measurement,setting,value
"CCN(CC)C(=S)SSC(=S)N(CC)CC [free DSF, 1-(diethylthiocarbamoyldisulfanyl)-N,N-diethyl-methanethioamide]",histological findings in rat skin,[1]; 8 hours post-administration,severe hyperemia was observed in the deep vascular plexus with bleeding in hypodermis
same,histological findings in rat skin,[1]; 24 hours post-administration,"severe hyperemia was observed in both plexus, abundant presence of inflammatory cells and hemorrhage in hypodermis"
same,histological findings in rat skin,[1]; 48 hours post-administration,"severe desestructuration of the collagen fibers, hyperemia of deep vascular plexus and moderate bleeding in hypodermis"
same,histological findings in rat skin,[1]; 72 hours post-administration,"moderate hyperemia was observed in both plexus, with moderate presence of inflammatory cells and hemorrhage in hypodermis"
same,histological findings in rat skin,[1]; 96 hours post-administration,"moderate hyperemia of deep vascular plexus, with hemorrhage in hypodermis and severe presence of inflammatory cells"
same,histological findings in rat skin,[1]; 120 hours post-administration,"moderate hyperemia of deep vascular plexus, with slight presence of inflammatory cells and desestructuration of collagen fibers"
same,histological findings in rat skin,[1]; 144 hours post-administration,moderate hyperemia of deep vascular plexus and low presence of inflammatory cells
same,histological findings in rat skin,[1]; 168 hours post-administration,moderate hyperemia of deep vascular plexus
same,"Histopathological lesions, conclusion",[1]; SC administration,severe Histopathological lesions
same,desestructuration of the collagen fibers (summary),"[1]; SC, rat skin, 8, 24 and 48 hours from inoculation","mild, moderate to severe"
same,Hyperemia of deep vascular plexus (summary),"[1]; SC, rat skin, 8-168 hours",severe in biopsies of 8 and 24 hours and mild to moderate in subsequent checks
same,"presence of inflammatory cells, superficial vascular plexus hyperemia and hemorrhage in subcutis (summary)","[1]; SC, rat skin, over the controls of the study",moderate to severe
same,plasma levels of active metabolites at 168 hours post-administration,[2],not detected

# From US20110021458A1, “PHARMACEUTICAL COMPOSITIONS CONTAINING AN INCLUSION COMPLEX FORMED BY DISULFIRAM AND A CYCLODEXTRINE, WHICH CAN BE USED IN THE TREATMENT OF ALCOHOL AND COCAINE DEPENDENCE” (priority 2007, published 2011)
